In patent US12391768B2, “Antibodies to ticagrelor and methods of use” (MEDIMMUNE LIMITED, priority 2014, dated 2025):
Like-named read-outs stand apart in the source and are kept apart here. One block for each molecule: values may come before it.

Tests used:
[1] = human, in vivo; cited from earlier work
[2] = molecular target: TICA0053 Fab; assay: HTRF competition binding selectivity assay, TICA0053 His-Fab; design: species or system human; conditions: first series (Table 2), not DMSO normalised
Method: (§1) Total Binding control wells were set up which contained all of the assay components above except that 5 ul assay buffer was added in place of the test selectivity compound addition. Negative Binding control wells were set up which contained all of the assay components included in the Total Binding control wells except that 5ul assay buffer was added in place of the His-Fab addition. Test compound serial titrations were either ½ or ⅓ depending on the particular experiment and top final assay compound concentrations were optimized on a compound specific basis. The concentration of biotinylated ticagrelor and His-Fab was optimized on a Fab specific basis in separate experiments. For the four Fabs investigated at the end of the lead isolation phase (TICA0010, TICA0049, TICA0053 and TICA0072) the final assay reagent concentrations used are set out in Table 1 below:
(§2) For the two Fabs investigated at the end of the lead optimization phase (TICA0162 and TICA0212) the final assay reagent concentrations used were 5nM biotinylated ticagrelor and 1 nM His Fab in both cases. […] In order to enable subsequent normalization of data to correct for any such vehicle related effects parallel titrations of DMSO alone were included in most experiments in which the final assay DMSO concentrations mirrored those of the test compound serial dilutions. At the end of the set up procedure that assay was incubated for 3hrs at RT before being read on an Envision plate reader using a standard read protocol.
(§3) The negative ratio value used in the calculation of % Delta F was derived from the Negative Binding control wells. % Delta F values were then used to calculate % Specific Binding values according to the equation below: Specific Binding (%)={(Sample Delta F−Negative Binding Delta F)/(Total Binding Delta F−Negative Binding Delta F)}×100
(§4) For standard calculations of % Specific Binding Total Binding Delta F was taken from Total Binding control wells which contained all of the aforementioned components of the assay but without inclusion of any competing test compound.
(§5) In those experiments where DMSO normalization was applied DMSO normalised % Specific Binding was calculated essentially according to the equation above except that in this case Total Binding Delta F was taken from wells containing all of the components in the Total Binding control wells as well as DMSO at a concentration equivalent to that in the relevant sample well.

[3] = molecular target: TICA0010 Fab; assay: HTRF competition binding selectivity assay, TICA0010 His-Fab; design: species or system human; conditions: first series (Table 2), not DMSO normalised
Method: as §1, §2, §3, §4, §5

[4] = molecular target: TICA0049 Fab; assay: HTRF competition binding selectivity assay, TICA0049 His-Fab; design: species or system human
Method: as §1, §2, §3, §4, §5
(§6) In a second series of experiments further selectivity data was generated for TICA0049 and TICA0072 Fabs in which a subset of four of the twelve compounds listed in FIG. 4 were retested along with ticagrelor, TAM and TIM and several adenosine related compounds. Here, in a refinement to the earlier investigations in Table 2, experiments were designed in order to enable normalisation of percent specific binding values to correct for any non-specific vehicle related effects due to DMSO. Example plotted data from this second series of experiments is shown in FIG. 5A-F along with tabulated IC50 values in Table 3.

[5] = molecular target: TICA0072 Fab; assay: HTRF competition binding selectivity assay, TICA0072 His-Fab; design: species or system human; conditions: second series (Table 3), DMSO normalised
Method: as §1, §2, §3, §4, §5, §6

[6] = molecular target: TICA0162 Fab; assay: HTRF competition binding selectivity assay, TICA0162 His-Fab; design: species or system human; conditions: Table 7, DMSO normalised; 5 nM biotinylated ticagrelor, 1 nM His Fab; read-out: IC50 (uM) for inhibition of biotinylated ticagrelor binding to TICA0162 Fab
Method: as §1
as §2, with “protocol. […]” for “protocol.”
as §5

[7] = molecular target: TICA0159 IgG binding to biotinylated ticagrelor; assay: Second generation HTRF epitope competition assay; conditions: for IC50: Fab, 16 nM TICA0159 IgG, 1 nM biotinylated ticagrelor; for Fold Improved: IC50 relative to parent TICA0072 Fab
Method: Purified parent TICA0072 (scFv or Fab) was used as a benchmark in all experiments such that improvements in IC50 measured with optimized variants (scFv or Fab) could be expressed as fold improvements over parent TICA0072. Total Binding Control Wells contained all assay components except that 5 ul assay buffer was added in place of the purified scFv or Fab sample. Negative Binding control wells contained all of the components of the Total Binding control wells except that 5 ul of assay buffer was added in place of the TICA0072 IgG.
In both single point HTS and multipoint IC50 profiling versions of the assay. plates were incubated for 3 hrs at RT before being read on an Envision plate reader using a standard HTRF read protocol in which samples are excited at 337 nm and time resolved fluorescence emission is measured at both 620 nm and 665 nM.
Raw 665 nm and 620 nm counts were used to calculate Delta F (%) and % Specific Binding according to the equations described earlier in Assays 1 and 4, respectively. For multipoint secondary profiling experiments IC50 values were determined using Graphpad Prism software using sigmoidal dose response (variable slope) curve fitting (4 parameter logistic equation).
This assay was used only in multipoint IC50 profiling format (as opposed to HTS format) and was performed essentially identically to the method given in Assay 5 (above) for multipoint IC50 profiling of purified Fab variants in the parent TICA0072 IgG based epitope competition assay. The only difference being that TICA0159 IgG was used in place of TICA0072 IgG at the appropriate point in the assay set up but at the same 16nM final assay concentration. In all other respects this assay was performed exactly as described above in the multipoint secondary profiling version for purified Fab.

[8] = Equilibrium affinity by KinExA3200, ticagrelor; assay type: binding; conditions: modifications in VL CDR3 or VH CDR3 only
Method: The affinity of anti-ticagrelor/TAM Fabs generated in Example 5 was determined using the KinExA3200. For the KinExA affinity measurement, beads (600 mg Azlactone beads) were first prepared by reacting them overnight with 1 mg streptavidin in 50 mM NaHCO3. Following blocking with 2 changes of Tris buffer (1M Tris pH 8.7, 10 mg/mL BSA) the streptavidin coated beads were resuspended in a total volume of 8 mL. Beads (1.33 mL, equivalent to 100 mg original dry Azlactone beads) were washed completely with PBS, then allowed to bind to approximately 2.5 μg biotin-ticagrelor in 1 mL PBS for 10 minutes with occasional agitation. […]
All assays were performed at room temperature. […] Bound antibody was then detected using DyLight649 labelled mouse anti-human Heavy and Light chain antibody. Sample volume (300-1300 μL) and injection time (90-120 s) varied with concentration, and 2 -3 reads were varied out per sample. The data were analysed using the KinExA n-Curve Analysis software. Using the Constant Partner analysis the equilibrium KD for the anti-ticagrelor Fab antibodies was determined.
As in the prior Example, Fabs were allowed to equilibrate at room temperature in the presence of either unmodified ticagrelor or TAM at concentrations from 20-fold excess. […] Bound antibody was then detected using a DyLight649 labelled mouse anti-human Heavy and Light chain detection antibody. […]

[9] = first series (Table 2), not DMSO normalised
[10] = first series (Table 2), not DMSO normalised, read-out: IC50 (uM) for inhibition of biotinylated ticagrelor binding to TICA0049 his-Fab
[11] = second series (Table 3), DMSO normalised
[12] = second series (Table 3), DMSO normalised, read-out: IC50 in competition binding selectivity studies, TICA0049

IC50 (uM) for inhibition of biotinylated ticagrelor binding to TICA0053 his-Fab [2]: competitive inhibition
IC50 ([2]; read-out: IC50 (uM) for inhibition of biotinylated ticagrelor binding to TICA0053 his-Fab): 17.5 µM
IC50 (uM) for inhibition of biotinylated ticagrelor binding to TICA00l0 his-Fab [3]: competitive inhibition
IC50 ([3]; read-out: IC50 (uM) for inhibition of biotinylated ticagrelor binding to TICA00l0 his-Fab): 102 µM
IC50 (uM) for inhibition of biotinylated ticagrelor binding to TICA0049 his-Fab [4, 9]: competitive inhibition
IC50 [4, 10]: 208 µM
IC50 in competition binding selectivity studies, TICA0049 [4, 11]: significant inhibition
IC50 [4, 12]: 188 µM
Molecule: CSCCNc1nc(SCCC(F)(F)F)nc2c1ncn2[C@@H]1O[C@H](COP(=O)(O)OP(=O)(O)C(Cl)(Cl)P(=O)(O)O)[C@@H](O)[C@H]1O [Cangrelor]

IC50 (uM) for inhibition of biotinylated ticagrelor binding to TICA0049 his-Fab [4, 9]: partial competitive inhibition
IC50 [4, 10]: 467 µM
IC50 in competition binding selectivity studies, TICA0049 [4, 11]: weak inhibition
IC50 [4, 12]: 902 µM
Molecule: CC(=O)NC[C@H]1CN(c2ccc(N3CCOCC3)c(F)c2)C(=O)O1 [Linezolid]

IC50 in competition binding selectivity studies, TICA0072 [5]: trace of inhibition
IC50 in competition binding selectivity studies, TICA0049 [4, 11]: trace of inhibition
Molecule: Nc1ncnc2c1ncn2[C@@H]1O[C@H](CO)[C@@H](O)[C@H]1O [Adenosine]

IC50 [7]: 0.0735 µM
Fold Improved [7]: 23.3
B1: TICA0152: VL CDR3 variant of TICA0072; VH SEQ ID NO:62, VL SEQ ID NO:67 (antibody, listed as Homo sapiens, V domains shown)
VH: QVQLQESGAEVKKPGSSVRVSCKASGGTFDSYSIHWVRQAPGQGLEWMGGIIPAFGTLSSAQDFQARVTISADKSTSTAYMELSGLRSEDTAVYYCARGSHLYDFWSASHPPNDALAIWGQGTLVTVSS
VL: QSVVTQPPSVSAAPGQKVTISCSGSNSDIGNNYVSWYQQLPGTAPKLLIYDNNKRPSGIPDRFSGSKSGTSATLAITGLQAGDEADYYCGTWLYDRAVGLFGGGTKVTVL
fold improvement over TICA0072 [8]: 200 fold

Further lines, the molecule ahead of its results:

Molecule: CCCSc1nc(N)c2nnn(C3CC(OCCO)C(O)C3O)c2n1 (centres unmarked) [TIM]
detectability in circulation [1]: undetectable after 8 hours
fraction of the parent ticagrelor [1]: < 10%

Molecule: Nc1ncnc2c1ncn2[C@@H]1O[C@H](COP(=O)(O)OP(=O)(O)O)[C@@H](O)[C@H]1O [ADP, adenosine diphosphate]
IC50 in competition binding selectivity studies, TICA0072 [5]: trace of inhibition
IC50 in competition binding selectivity studies, TICA0049 [4, 11]: trace of inhibition

Molecule: NS(=O)(=O)c1cc2c(cc1Cl)NC(C1CC3C=CC1C3)NS2(=O)=O (centres unmarked) [Cyclothiazide]
IC50 [6]: > 1000 µM

Molecule: Nc1ncnc2c1ncn2[C@@H]1O[C@H](COP(=O)(O)OP(=O)(O)OP(=O)(O)O)[C@@H](O)[C@H]1O [ATP, adenosine triphosphate]
IC50 in competition binding selectivity studies, TICA0072 [5]: trace of inhibition
IC50 in competition binding selectivity studies, TICA0049 [4, 11]: trace of inhibition

Molecule: CCCC(=O)Nc1ncnc2c1ncn2[C@@H]1O[C@@H]2COP(=O)(O)O[C@H]2[C@H]1OC(=O)CCC [Bucladesine]
IC50 in competition binding selectivity studies, TICA0049 [4, 11]: weak inhibition
IC50 [4, 12]: 865 µM

B2: TICA0162: VH CDR3 variant of TICA0072; VH SEQ ID NO:52, VL SEQ ID NO:57 (antibody, listed as Homo sapiens, V domains shown)
VH: QVQLQESGAEVKKPGSSVRVSCKASGGTFDSYSIHWVRQAPGQGLEWMGGIIPAFGTLSSAQDFQARVTISADKSTSTAYMELSGLRSEDTAVYYCARGSFDYYFWSASHPPNDALAIWGQGTLVTVSS
VL: QSVVTQPPSVSAAPGQKVTISCSGSNSDIGNNYVSWYQQLPGTAPKLLIYDNNKRPSGIPDRFSGSKSGTSATLAITGLQAGDEADYYCGTWDISLSAGLFGGGTKVTVL
IC50 [7]: 0.0163 µM
Fold Improved [7]: 105.2
fold improvement over TICA0072 [8]: 50 fold
